Counter-ions that a name gives are not always drawn. Like-named read-outs stand apart in the source and are kept apart here.
Legend:
Assay type in all cases: cell-based
[1] = test system: Herpes simplex type 1 virus (HFEM strain); experiment: Plaque reduction test in virus-infected Vero cells
Method: (§1) Vero (African Green Monkey Kidney) cells were grown to confluence in 24 well multidishes, each well being 1.6cm in diameter. The cells were infected with Herpes simplex type 1 virus (HFEM strain) and overlaid with 0.5ml of 0.9% agarose (w/v) in maintenance medium. Test compounds prepared in maintenance medium in concentrations ranging from 100 to 0.03pg/ml in half-log dilution steps, were added in 0.5ml volume. The virus infected cultures were then incubated at 37° for 4 days before fixing in 4% formaldehyde solution and staining with carbolfuchsin.

in vitro [2] = conditions: african green monkey, vero cells
Method: as §1

[3] = test system: Vero (African Green Monkey Kidney) cells; experiment: in vitro; conditions: minimum concentration of test compound which caused cytotoxicity; Vero cells, 4 days at 37°; highest concentration tested 100
Method: as §1

in vitro [4] = conditions: african green monkey; minimum concentration of test compound which caused cytotoxicity; Vero cells, 4 days at 37°; highest concentration tested 100; read-out: MTD
[5] = Human alphaherpesvirus 1, 96 h, concentration causing 50% reduction in number of virus plaques, HSV-1 HFEM strain, 4 days at 37°, molar units, read-out: PDD50 (the source's name)
[6] = Human alphaherpesvirus 1, 96 h, concentration causing 50% reduction in number of virus plaques, HSV-1 HFEM strain, 4 days at 37°, read-out: PDD50 (the source's name)
[7] = Human alphaherpesvirus 1, Vero, 96 h, read-out: PDD50, concentration causing 50% reduction in number of virus plaques, HSV-1 HFEM strain, 4 days at 37°
[8] = Human alphaherpesvirus 1, Vero, 96 h, read-out: PDD50, concentration causing 50% reduction in number of virus plaques, HSV-1 HFEM strain, 4 days at 37°, molar units

Structure (SMILES)	IC50 [1, 5] [nM]	IC50 [1, 6] [µg/mL]	MCC at 96 h (in vitro [2]) [µg/mL]	IC50 [1, 7] [µg/mL]	IC50 [1, 8] [nM]	MTD [3] [µg/mL]	MCC at 96 h (in vitro [4]) [µg/mL]
CCCCC(=O)O[C@H]1C[C@H](n2cc(/C=C/Br)c(=O)n(C(=O)CCCC)c2=O)O[C@@H]1COC(=O)OCC [Example 8, 5-(E-2-Bromovinyl)-2'-deoxy-5'-0-ethoxycarbonyl-3,3'-0-bisvaleryluridine]	3000	1.7	> 100	–	–	–	–
CCOC(=O)O[C@H]1C[C@H](n2cc(/C=C/Br)c(=O)[nH]c2=O)O[C@@H]1CO [Example 6, 5-(E-2-Bromovinyl)-2'-deoxy-3'-0-ethoxycarbonyluridine]	1100	0.43	> 100	–	–	–	–
CC(C)COC(=O)OC[C@H]1O[C@@H](n2cc(/C=C/Br)c(=O)[nH]c2=O)C[C@@H]1O [Example 17, 5-(E-2-Bromovinyl)-5'-O-isobutoxycarbonyl-2'-deoxyuridine]	500	0.22	> 100	–	–	–	–
CCOC(=O)OC[C@H]1O[C@@H](n2cc(/C=C/Br)c(=O)[nH]c2=O)C[C@@H]1OC(=O)CCC(=O)[O-].[Na+]	–	–	–	6.3	–	–	–
COC(=O)O[C@H]1C[C@H](n2cc(/C=C/Br)c(=O)[nH]c2=O)O[C@@H]1CO [Example 2, 5-(E-2-Bromovinyl)-2'-deoxy-3'-0-methoxycarbonyluridine]	1900	0.74	> 100	–	–	–	–
CCCCC(=O)O[C@H]1C[C@H](n2cc(/C=C/Br)c(=O)[nH]c2=O)O[C@@H]1COC(=O)OCC [Example 9, 5-(E-2-Bromovinyl)-2'-deoxy-5'-O-ethoxyarbonyl-3'-O-valeryluridine]	3000	1.5	> 100	–	–	–	–
CC(C)(C)OC(=O)OC[C@H]1O[C@@H](n2cc(/C=C/Br)c(=O)[nH]c2=O)C[C@@H]1OC(=O)OC(C)(C)C [Example 19, 5-(E-2-Bromovinyl)-3',5'-bis-O-t-butoxycarbonyl-2^1-deoxyuridine]	3800	2	> 100	–	–	–	–
CCOC(=O)OC[C@H]1O[C@@H](n2cc(/C=C/Br)c(=O)[nH]c2=O)C[C@@H]1OC(=O)OCC [Example 4, 5-(E-2-Bromovinyl)-2'-deoxy-3',5'-bis-0-ethoxycarbonyluridine]	2300	1.1	> 100	–	–	–	–
O=C(OC[C@H]1O[C@@H](n2cc(/C=C/Br)c(=O)[nH]c2=O)C[C@@H]1O)Oc1ccc([N+](=O)[O-])cc1 [Example 24, 5-(E-2-Bromovinyl)-2'-deoxy-5'-O-(p-nitrophenoxycarbonyl)uridine]	1200	0.6	100	–	–	–	–
CCOC(=O)OC[C@H]1O[C@@H](n2cc(/C=C/Br)c(=O)[nH]c2=O)C[C@@H]1OP(=O)([O-])[O-].[Na+].[Na+] [Example 12, 5-(E-2-Bromovinyl)-2'-deoxy-5'-O-ethoxycarbonyluridine 3'-Phosphate Disodium Salt]	–	–	–	12	23000	>100	–
CCOC(=O)n1c(=O)c(/C=C/Br)cn([C@H]2C[C@H](O)[C@@H](CO)O2)c1=O [Example 7, 5-(E-2-Bromovinyl)-2'-deoxy-3-ethoxycarbonyluridine]	12300	5	–	–	–	–	> 100
CC(C)(C)OC(=O)O[C@H]1C[C@H](n2cc(/C=C/Br)c(=O)[nH]c2=O)O[C@@H]1CO [Example 20, 5-(E-2-Bromovinyl)-3'-O-t-butoxycarbonyl-2^1-deoxyuridine]	400	0.18	> 100	–	–	–	–
CCOC(=O)OC[C@H]1O[C@@H](n2cc(/C=C/Br)c(=O)[nH]c2=O)C[C@@H]1OP(=O)(O)O [Example 13, 5-(E-2-Bromovinyl)-2'-deoxy-5'-0-ethoxycarbonyluridine 3'-Phosphate Monosodium Salt]	7500	3.8	–	–	–	–	> 100
CC(C)COC(=O)OC[C@H]1O[C@@H](n2cc(/C=C/Br)c(=O)[nH]c2=O)C[C@@H]1OC(=O)OCC(C)C [Example 16, 5-(E-2-Bromovinyl)-3',5'-bis-0-isobutoxycarbonyl-2'-deoxyuridine]	800	0.44	100	–	–	–	–
CCCCC(=O)n1c(=O)c(/C=C/Br)cn([C@H]2C[C@H](O)[C@@H](COC(=O)OCC)O2)c1=O [Example 10, 5-(E-2-Bromovinyl)-2'-deoxy-5'-0-ethoxycarbonyl-3-valeryl-uridine]	6700	3.3	> 100	–	–	–	–
COC(=O)OC[C@H]1O[C@@H](n2cc(/C=C/Br)c(=O)[nH]c2=O)C[C@@H]1OC(=O)OC [Example 1, 5-(E-2-Bromovinyl)-2'-deoxy-3',5'-bis-0-methoxycarbonyl-uridine]	11800	5.3	> 100	–	–	–	–
CC(C)(C)OC(=O)OC[C@H]1O[C@@H](n2cc(/C=C/Br)c(=O)[nH]c2=O)C[C@@H]1O [Example 18, 5-(E-2-Bromovinyl)-5'-O-t-butoxycarbonyl-2'-deoxyuridine]	700	0.28	> 100	–	–	–	–
CCOC(=O)OC[C@H]1O[C@@H](n2cc(/C=C/Br)c(=O)[nH]c2=O)C[C@@H]1OC(=O)CCC(=O)[O-].[Na+] [Sodium Salt]	–	–	–	–	12000	–	> 100
CCCCOC(=O)OC[C@H]1O[C@@H](n2cc(/C=C/Br)c(=O)[nH]c2=O)C[C@@H]1O [Example 15, 5-(E-2-Bromovinyl)-5'-0-n-butoxycarbonyl-2'-deoxyuridine]	600	0.25	> 100	–	–	–	–

The next lines start with results.

IC50 [1, 5] [nM]	IC50 [1, 6] [µg/mL]	MCC at 96 h (in vitro [2]) [µg/mL]	Structure (SMILES)	IC50 [1, 7] [µg/mL]	IC50 [1, 8] [nM]	MTD [3] [µg/mL]	MCC at 96 h (in vitro [4]) [µg/mL]
900	0.39	> 100	CCCOC(=O)OC[C@H]1O[C@@H](n2cc(/C=C/Br)c(=O)[nH]c2=O)C[C@@H]1O [Example 14, 5-(E-2-Bromovinyl)-2'-deoxy-5'-0-propoxycarbcnyluridine]	–	–	–	–
700	0.28	> 100	CCOC(=O)OC[C@H]1O[C@@H](n2cc(/C=C/Br)c(=O)[nH]c2=O)C[C@@H]1O [Example 5, 5-(E-2-Bromovinyl)-2'-deoxy-5'-0-ethoxycarbonyluridine]	–	–	–	–
1700	0.72	> 100	C=CCOC(=O)OC[C@H]1O[C@@H](n2cc(/C=C/Br)c(=O)[nH]c2=O)C[C@@H]1O [Example 21, 5'-0-Allyloxycarbonyl-5-(E-2-bromovinyl)-2'-deoxyuridine]	–	–	–	–
100	0.05	> 100	O=C(OCc1ccccc1)OC[C@H]1O[C@@H](n2cc(/C=C/Br)c(=O)[nH]c2=O)C[C@@H]1O [Example 22, 5'-O-Benzyloxycycarbonyl-5-(E-2-bromovinyl)-2'-deoxyuridine]	–	–	–	–
4600	1.5	> 100	C=Cc1cn([C@H]2C[C@H](O)[C@@H](COC(=O)OCC)O2)c(=O)[nH]c1=O [Example 27, 2^1-Deoxy-5^1-O-ethoxycarbonyl-5-vinyluridine]	–	–	–	–
2100	0.88	> 100	CC(C)OC(=O)OC[C@H]1O[C@@H](n2cc(/C=C/Br)c(=O)[nH]c2=O)C[C@@H]1O [Example 25, 5-(E-2-Bromovinyl)-2'-deoxy-5'-0-isopropoxycarbonyluridine]	–	–	–	–
1800	0.76	> 100	O=C(OCCO)OC[C@H]1O[C@@H](n2cc(/C=C/Br)c(=O)[nH]c2=O)C[C@@H]1O [Example 26, 5-(E-2-Bromovinyl)-2'-deoxy-5'-0-(2-hydroxyethox^ycarbonyl)-uridine]	–	–	–	–
400	0.18	> 100	O=C(OC[C@H]1O[C@@H](n2cc(/C=C/Br)c(=O)[nH]c2=O)C[C@@H]1O)Oc1ccccc1 [Example 23, 5-(E-2-Bromovinyl)-5'-0-phenoxycarbonyl-2'-deoxyuridine]	–	–	–	–
3800	1.5	> 100	COC(=O)OC[C@H]1O[C@@H](n2cc(/C=C/Br)c(=O)[nH]c2=O)C[C@@H]1O [Example 3, 5-(E-2-Bromovinyl)-2'-deoxy-5'-O-methoxycarbonyluridine]	–	–	–	–
